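Cultured in 96-well plates, cells were exposed to test compound for 48 hours across five concentrations. TGI: total growth inhibition.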
Legend:
Assay in all cases: growth of human tumour cells (NCI), 48 h
786-0 renal = system: 786-0 renal
COLO 205 colon = system: COLO 205 colon
HCT-116 colon = system: HCT-116 colon
MALME-3M melanoma = system: MALME-3M melanoma
OVCAR-5 ovarian = system: OVCAR-5 ovarian
SK-OV-3 ovarian = system: SK-OV-3 ovarian
SNB-19 CNS = system: SNB-19 CNS
UACC-257 melanoma = system: UACC-257 melanoma
UACC-62 melanoma = system: UACC-62 melanoma
HL-60(TB) leukemia = system: HL-60(TB) leukemia
HOP-92 NSCLC = system: HOP-92 NSCLC
MOLT-4 leukemia = system: MOLT-4 leukemia
SW-620 colon = system: SW-620 colon
T-47D breast = system: T-47D breast
K-562 leukemia = system: K-562 leukemia
SR leukemia = system: SR leukemia

SMILES | TGI (786-0 renal) | TGI (COLO 205 colon) | TGI (HCT-116 colon) | TGI (MALME-3M melanoma) | TGI (OVCAR-5 ovarian) | TGI (SK-OV-3 ovarian) | TGI (SNB-19 CNS) | TGI (UACC-257 melanoma) | TGI (UACC-62 melanoma) | TGI (HL-60(TB) leukemia) | TGI (HOP-92 NSCLC) | TGI (MOLT-4 leukemia) | TGI (SW-620 colon) | TGI (T-47D breast) | TGI (K-562 leukemia) | TGI (SR leukemia)
NC(=O)C1Cc2cc3c(cc21)OCO3 (stereo not drawn) | > 100 µM | > 100 µM | > 100 µM | > 100 µM | > 100 µM | > 100 µM | > 100 µM | > 100 µM | > 100 µM |  |  |  |  |  |  | 
CC(C)C(Sc1nc(-c2ccccc2)c(-c2ccccc2)[nH]1)C(=O)NN (stereo not drawn) | > 100 µM | > 100 µM | > 100 µM | > 100 µM | > 100 µM | > 100 µM | > 100 µM | > 100 µM |  | > 100 µM | > 100 µM | > 100 µM | > 100 µM |  |  | 
COC(=O)[C@@H](NC(=O)N(CCC#N)CCCN(C(=O)N[C@H](Cc1ccccc1)C(=O)OC)c1ccccc1)C(C)C | > 100 µM | > 100 µM | > 100 µM | 92.7 µM | > 100 µM | > 100 µM | > 100 µM | > 100 µM | > 100 µM |  | 80 µM | > 100 µM | > 100 µM | > 100 µM |  | 
Nc1ncnc2c1ncn2C1OC(CO)C(O)C(O)C1O (stereo not drawn) | > 100 µM | > 100 µM | > 100 µM | > 100 µM | > 100 µM |  | > 100 µM | > 100 µM |  | > 100 µM | > 100 µM | > 100 µM | > 100 µM |  | > 100 µM | > 100 µM
CCN(CC)c1c(-c2c(N(CC)CC)c(OC(C)=O)c3sccn3c2=O)c(=O)n2ccsc2c1OC(C)=O | 90.1 µM | > 100 µM | > 100 µM | > 100 µM | > 100 µM | > 100 µM | > 100 µM | > 100 µM | > 100 µM | > 100 µM | > 100 µM | > 100 µM | > 100 µM |  | > 100 µM | 
Cn1ccc2c(C(=O)c3ccccc3)cccc2c1=O | > 100 µM | > 100 µM | > 100 µM | > 100 µM |  | > 100 µM |  | > 100 µM | > 100 µM | 88.9 µM | > 100 µM | > 100 µM | > 100 µM |  |  | > 100 µM
COc1ccc(N2C(=O)C3c4[nH]c5ccccc5c4C4CC(C)CC(C)C4C3C2=O)cc1 (stereo not drawn) | > 100 µM | > 100 µM | > 100 µM | > 100 µM |  | > 100 µM | > 100 µM | > 100 µM | > 100 µM | > 100 µM | > 100 µM | > 100 µM | > 100 µM |  | > 100 µM | > 100 µM
CN(C)CC1CCCC(CN(C)C)C1=NOC(=O)c1ccccc1 (stereo not drawn) | > 100 µM | > 100 µM | > 100 µM | > 100 µM | > 100 µM | > 100 µM | > 100 µM | > 100 µM | > 100 µM | > 100 µM | > 100 µM | > 100 µM | > 100 µM |  | > 100 µM | > 100 µM
CN(C(=O)C1CCCCCC1=O)c1ccccc1Cl (stereo not drawn) | > 100 µM | > 100 µM | > 100 µM | > 100 µM | > 100 µM | > 100 µM | > 100 µM | > 100 µM |  |  | > 100 µM | > 100 µM | > 100 µM | > 100 µM |  | 
C[C@]12C[C@@H](c3ccccc3)Nc3ccccc3N1C(c1ccccc1)=NO2 | > 100 µM | 34.7 µM | > 100 µM | > 100 µM | > 100 µM | > 100 µM | > 100 µM | > 100 µM | > 100 µM | 71.9 µM | 58.4 µM | 43.5 µM | > 100 µM |  | > 100 µM | 34.6 µM
CC(C)=c1sc(=C(C)C)c2c1=NC(C)(C)N=2 | > 100 µM | > 100 µM | > 100 µM | > 100 µM | > 100 µM | > 100 µM | > 100 µM | > 100 µM | > 100 µM | > 100 µM |  | > 100 µM | > 100 µM | > 100 µM |  | 
COc1ccc2c(c1)Oc1cc(O)ccc1[C@@H]2c1ccccc1C(=O)NC(C)c1ccccc1 (stereo partly drawn) | 27.9 µM | 32.9 µM | 24.8 µM | 31.3 µM | 30.5 µM | 49.1 µM | 32.7 µM | 32.7 µM | 28.2 µM | 34.5 µM |  | 36.2 µM | 38.9 µM |  | > 100 µM | 
COc1ccc(/C=C2\N=C(SC)N(CN3CCCCC3)C2=O)cc1 | > 100 µM | > 100 µM | > 100 µM | > 100 µM | > 100 µM | > 100 µM | > 100 µM |  | > 100 µM |  | > 100 µM | > 100 µM | > 100 µM |  | > 100 µM | > 100 µM

From PubChem BioAssay (NCI)
